# Measurements as given in patent publication US12263192B2, “Compositions for management of disorders of the gastrointestinal tract” (PanTheryx, Inc., priority 2019, dated 2025).
# How the values were obtained:
# [1] = tested on: rotavirus; settings: pediatric patients; 3 day course; 7.5 mg/kg suspension; cited from earlier work
# [2] = tested on: rotavirus infection in MA-104 cells; settings: cited from earlier work
# [3] = tested on: AGS cells; assay: Proliferation assay (ALAMARBLUE) of egg and/or colostrum, Example 8A; format: cell-based, human
# Protocol: Cell proliferation assays were performed as previously described, utilising ALAMARBLUETM (Invitrogen, Paisley, UK), (Marchbank et al., Am J Physiol Gastrointest Liver Physiol. 2009; 296:[…]-703) as per manufacturer's instructions. Briefly, cells were seeded at 2000 cells/well, grown in medium and 10% FCS in 96 well plates overnight. The following day, cells were washed with medium alone and incubated in medium alone (negative control), medium containing epidermal growth factor (EGF, 1 μg/ml, positive control) or egg and colostrum combination. BSA was added to additional wells as a further negative control. Data are expressed as % positive control where the rise in proliferation (increase in A570 above baseline) caused by […] of EGF was defined as 100%. Whole powdered egg and colostrum (0.25-4 mg/ml) was added to cells and effect on proliferation and cell migration analysed. Additional studies compared “pure” yolk and egg white powder (1 mg powder/ml) along with separated yolk and white from fresh eggs (added at same protein concentration as equivalent powder) and also compared uncooked egg powder and whole fresh egg that had been heated to 100° C. for 8 minutes (samples placed in 50 ml falcon tube in waterbath, followed by homogenisation) prior to addition to cells. […] This 40:60 proportion was used to reproduce the product currently commercially available and used in trials of infectious diarrhoea. Gaensbauer et al. BMJ Glob Health. 2017; 2:e000452. The importance of the EGFR and TGFβ in mediating proliferative and migratory effects was examined by adding whole egg powder (1 mg/ml, w/v) to cells in the presence and absence of tyrphostin (100 nM) and a TGFβ ([…]) neutralising antibody (antibodies-online.com, Aachen, Germany). Additional samples examined the effect of pure ovomucoid (25-100 μg/ml) and ovalbumin (50-400 μg/ml) on proliferation and migration. To further examine the contribution of ovomucoid and ovalbumin in mediating the proliferative and migratory activity seen using whole egg powder, further wells had egg powder added (1 mg/ml) in the presence of anti-ovomucoid and ovalbumin antibodies (Generon, Slough, Berkshire, UK) at 1 μg/ml.
# [4] = tested on: AGS cells; assay: Cell migration assay (wounded monolayers) of egg and/or colostrum, Example 8A; format: cell-based, human; settings: purified protein
# Protocol: Cell migration assays were performed using our previously published methods. Marchbank et al., Am J Physiol Gastrointest Liver Physiol. 2009; 296:[…]-703. Briefly, confluent monolayers had standard wounds inflicted and serial photomicrographs taken. Twenty measurements per field were performed by placing a transparent grid over the photograph and measuring the distance moved from the original wound line. All results are expressed as mean (SEM) of four separate experiments. Whole powdered egg and colostrum (0.25-4 mg/ml) was added to cells and effect on proliferation and cell migration analysed. Additional studies compared “pure” yolk and egg white powder (1 mg powder/ml) along with separated yolk and white from fresh eggs (added at same protein concentration as equivalent powder) and also compared uncooked egg powder and whole fresh egg that had been heated to 100° C. for 8 minutes (samples placed in 50 ml falcon tube in waterbath, followed by homogenisation) prior to addition to cells. […] This 40:60 proportion was used to reproduce the product currently commercially available and used in trials of infectious diarrhoea. Gaensbauer et al. BMJ Glob Health. 2017; 2:e000452. […]
# [5] = tested on: these cell lines; settings: cited from earlier work
# [6] = tested on: RIE cells; assay: Cell proliferation assay in RIE cells; format: cell-based, rat; settings: vs SFM, standard colostrum or ZnC
# Protocol: Human gastrointestinal cells (AGS cells) or rat intestinal epithelial cells (RIE cells) are seeded at 2000 cells/well in an appropriate growth medium containing glutamine and 10% foetal calf serum in 96 well plates overnight. The following day, cells are washed twice with serum-free medium and then incubated in serum-free medium alone (SFM negative control) or also containing colostrum at various concentrations or epidermal growth factor (EGF, positive control) overnight. The following day ALAMARBLUE™ is added to each well. ALAMARBLUE™ is a coloured substrate that changes colour from blue to pink in response to cellular metabolic reduction. This change can be determined by reading the absorbance of the wells at 570 nm using a spectrophotometer at 0 h when the substrate is added and 4 hours later.
molecule,measurement,setting,value
CC(=O)Oc1ccccc1C(=O)Nc1ncc([N+](=O)[O-])s1 [Nitazoxanide],duration of rotavirus disease,[1],effective to reduce the duration of rotavirus disease
O=c1cc(-c2ccc(O)cc2)oc2cc(O[C@@H]3O[C@H](CO)[C@@H](O)[C@H](O)[C@H]3O)cc(O)c12 [apigenin 7-O-glucoside],antiviral activity against rotavirus infection,[2],antiviral activity
O=c1cc(-c2ccc(O)c(O)c2)oc2cc(O)cc(O)c12 [luteolin],antiviral activity against rotavirus infection,[2],antiviral activity
"ovalbumin: purified ovalbumin, 42 kDa egg white protein",effect on proliferation and migration,[3]; pure isolated ovalbumin at 400 µg/mL,major stimulatory effect
same,"cell proliferation dose-response, in words","[3]; purified protein, 50-400 μg/ml",increasing activity up to the highest dose
same,"cell migration dose-response, in words",[4]; 50-400 μg/ml,increasing activity up to the highest dose
soya bean trypsin inhibitor,proliferation or migration,[5],does not increase proliferation or migration
zinc carnosine,"cell proliferation (A570 nm), comparison in words",[6],stimulate cell proliferation
"ovomucoid: purified ovomucoid, 28 kDa egg white protein with trypsin inhibitor activity (protein, UniProt P01005 25-210, looked up) Ovomucoid: AEVDCSRFPNATDKEGKDVLVCNKDLRPICGTDGVTYTNDCLLCAYSIEFGTNISKEHDGECKETVPMNCSSYANTTSEDGKVMVLCNRAFNPVCGTDGVTYDNECLLCAHKVEQGASVDKRHDGGCRKELAAVSVDCSEYPKPDCTAEDRPLCGSDNKTYGNKCNFCNAVVESNGTLTLSHFGKC",share of total proliferative and migratory activity of whole egg,[3]; from neutralising antibody studies,about 80%
same,"concentration of peak effect, cell proliferation","[3]; purified protein, dose-response 25-100 μg/ml",50 µg/mL
same,"concentration of peak effect, cell migration",[4]; dose-response 25-100 μg/ml,50 µg/mL
